Assay: method code SF-AS, from DOI: 10.1016/0223-5234(89)90112-8
Conditions: for logD: pH 7.4

Row | logP | logD | SMILES
1 | 2.11 | – | CN1CCOC(OCCc2ccccc2)(c2ccccc2)C1 (stereo not drawn)
2 | – | 1.96 | CCCOC1(c2ccccc2)CN(C)CC(C)O1 (stereo not drawn)
3 | 2.19 | – | CCCOC1(c2ccc(Br)cc2)CN(C)CCO1 (stereo not drawn)
4 | – | 1.76 | C#CCOC1(c2ccccc2)CN(C)CCO1 (stereo not drawn)
5 | – | 2.05 | CCCCOC1(c2ccccc2)CN(C)CCO1 (stereo not drawn)
6 | – | 2.05 | CN1CCOC(OCc2ccccc2)(c2ccccc2)C1 (stereo not drawn)
7 | – | 1.92 | C=CCOC1(c2ccccc2)CN(C)CCO1 (stereo not drawn)
8 | – | 1.98 | CC(C)COC1(c2ccccc2)CN(C)CCO1 (stereo not drawn)
9 | 2.32 | – | CCCCCCCCOC1(c2ccccc2)CN(C)CCO1 (stereo not drawn)
10 | – | 1.95 | CCCOC1(c2ccccc2)CN(C)CCO1 (stereo not drawn)

Continued, compound first:

Row | SMILES | logP | logD
11 | CN1CCOC(O)C1c1ccccc1 (stereo not drawn) | – | 0.97
12 | CC1C(c2ccccc2)OC(O)(c2ccccc2)CN1C (stereo not drawn) | 1.87 | –
13 | CN1CCOC(O)(c2ccc(Br)cc2)C1 (stereo not drawn) | 1.57 | –
14 | CCOC1(c2ccccc2)OCCN(C)C1C (stereo not drawn) | – | 1.74
15 | CC1N(C)CCOC1(O)c1ccccc1 (stereo not drawn) | – | 1.31
16 | CC1CN(C)CC(O)(c2ccccc2)O1 (stereo not drawn) | – | 1.48
17 | CN1CCOC(O)(c2cccc(C(F)(F)F)c2)C1 (stereo not drawn) | 1.39 | –
18 | CN1CCOC(O)(c2ccccc2)C1 (stereo not drawn) | – | 1.3
